From patent US20250109127A1, “METHODS OF USE OF PHENOXYPROPYLAMINE COMPOUNDS TO TREAT DEPRESSION” (Minerva Neurosciences, Inc., priority 2013, published 2025)
Where a name gives a salt, the structure may show the parent alone.

What was measured:
[1] = tested on: animals exposed to chronic mild stress; experiment: Novel object recognition test after CMS and treatment withdrawal; format: in vivo, rat
Text: After completion of the administration and withdrawal period, all control and stressed animals were placed in an open field (100 cm in diameter, 35 cm high) and allowed to explore two identical objects (cylinder-shaped object with walls painted white, 7 cm in diameter, 11 cm high) for the time required to complete 15 s of exploration of either object. For the retention trial conducted one hour later, one of the objects presented previously was replaced with a novel object (prism-shaped object with walls painted black, 5 cm wide, 14 cm high). Rats were returned to the open field for 5 min and the duration of exploration (i.e. sitting in close proximity to the objects, sniffing or touching them) of each object was measured separately by a trained observer. The data were calculated according to the following formula: [time of novel object exploration divided by time of novel plus familiar object exploration multiplied by 100]. The CMS and NOR data were analyzed by multiple analyses of variance with three between-subjects factors (stress/control, drug treatments and intakes in successive sucrose tests). The Fisher's LSD test was used for the post-hoc comparisons of means.

[2] = Pharmacokinetic study, plasma concentration on day 1 and day 14; format: in vivo; details: day 1 and day 14 after dosing with SON-117
Text: were examined in pharmacokinetic studies.
FIG. 34 illustrates the plasma concentration of SON-117 as a function of time on day 1 after dosing with SON-117. FIG. 35 illustrates the plasma concentration of SON-117 as a function of time on day 14 after dosing with SON˜117.
FIG. 36 illustrates the plasma concentration of the M1 metabolite of SON-117 as a function of time on day 1 after dosing with SON-117. FIG. 37 illustrates the plasma concentration of the M1 metabolite of SON-117 as a function of time on day 14 after dosing with SON-117.

5-HTT = 5-HTT (Homo sapiens, UniProt P31645); experiment: Receptor binding, 5-HTT
5-HT1A, 5-HTT, 5-HT2A = experiment: Electrophysiological studies; details: first 5-HT1A is presynaptic

5-HTT, sequence (P31645 whole entry, species assumed): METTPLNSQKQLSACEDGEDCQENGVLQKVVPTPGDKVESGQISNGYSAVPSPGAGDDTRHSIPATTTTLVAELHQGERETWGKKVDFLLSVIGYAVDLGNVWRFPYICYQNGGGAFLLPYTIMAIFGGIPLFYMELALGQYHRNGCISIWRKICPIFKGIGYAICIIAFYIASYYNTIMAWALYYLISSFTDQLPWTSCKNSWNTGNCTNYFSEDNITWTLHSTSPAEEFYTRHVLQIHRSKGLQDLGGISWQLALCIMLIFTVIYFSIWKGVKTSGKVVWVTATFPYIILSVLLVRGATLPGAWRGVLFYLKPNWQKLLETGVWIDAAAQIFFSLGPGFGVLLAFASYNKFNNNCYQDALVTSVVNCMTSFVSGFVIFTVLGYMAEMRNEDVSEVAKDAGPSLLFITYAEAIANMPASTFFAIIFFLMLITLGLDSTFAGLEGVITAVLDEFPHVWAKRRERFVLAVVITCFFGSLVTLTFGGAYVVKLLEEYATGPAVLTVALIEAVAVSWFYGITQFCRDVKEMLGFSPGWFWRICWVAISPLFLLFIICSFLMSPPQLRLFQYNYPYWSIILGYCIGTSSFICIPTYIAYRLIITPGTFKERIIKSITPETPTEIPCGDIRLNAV

Compound: Cc1nnc(-c2cc3c(OC[C@@H](O)CN4CCC(c5ccc(Cl)c(Cl)c5)CC4)cccc3o2)o1 [SON-117, (S)-1-(4-(3,4-dichlorophenyl)piperidino)-3-(2-(5-methyl-1,3,4-oxadiazol-2-yl)benzo(b)furan-4-yloxy)-2-propanol hydrochloride]
- recognition index in stressed animals ([1]; SON-117 0.001, 0.01 and 0.1 mg/kg, one week after withdrawal): restored
- effect against the CMS-induced deficit in the novel object recognition ([1]; SON-117 1 mg/kg, stressed animals): ineffective
- recognition index in control animals ([1]; SON-117 all doses (0.001-1 mg/kg IP), one week after withdrawal): no significant effect
- AUC, dependence on dose [2]: dose-proportional increase
- Cmax, dependence on dose [2]: dose-proportional increase
- affinity, 5-HTT binding (5-HTT): high affinity
- order of effects in electrophysiological studies (5-HT1A, 5-HTT, 5-HT2A): 5-HT1A>5-HTT>5-HT2A>postsynaptic 5-HT1A
